Assay results published in patent US20140221469A1, “PHYTOCANNABINOIDS FOR USE IN THE TREATMENT OF CANCER” (Otsuka Pharmaceutical Co., Ltd., priority 2011, published 2014).
pIC50: −log10 of the molar value. Like-named read-outs stand apart in the source and are kept apart here.

What was measured:
U87 glioma cells = details: Boyden chamber; cited from earlier work
U87 cells [1] = assay: Evaluation of apoptosis (propidium iodide flow cytometry), U87; type: cell-based, human; details: 24 h
Procedure: 3.4×10^5 tumour cells were cultured in 6 well-plates in the presence or absence of CBDV or THCV for 24 h, as described above and the percentage of apoptotic cells on the total cell population (adhering/detached cells) was evaluated. Briefly, cells were collected, washed, and centrifuged at 1300 rpm. They were then fixed in ethanol 70% for at least 30 min at −20° C. After centrifugation, the cell pellet was gently re-suspended in 1 ml of PBS solution containing propidium iodide (PI, 50 μg/ml) and RNAse (20 μg/ml). Cells were analyzed after a minimum of 30 min of incubation in the dark at room temperature, and apoptosis was detected in individual cells using a flow cytometer (equipped with a single 488-nm argon laser; BD Biosciences, San Jose, Calif.) by reduced fluorescence of PI in apoptotic nuclei.

U87 human glioma cells = assay: MTT colorimetric cell viability assay, U87; type: cell-based; details: for Effect on tumour cell viability (MTT test), alone / Effect of CB1 antagonist on inhibition of cell proliferation / Effect of CB2 antagonist on inhibition of cell proliferation / Effect of TRPV1 vanilloid antagonist on inhibition of cell proliferation: U87; for pIC50: Homo sapiens, U-87 MG, 24 h, read-out: IC50, drop of mitochondrial oxidative metabolism (MTT test); for Effect of CB1 antagonist on inhibition of cell proliferation: AM 251 (0.5 μM) added; for Effect of CB2 antagonist on inhibition of cell proliferation: SR 144528 (0.5 μM) for CBG, AM630 (0.5 μM) for CBDV; for Effect of TRPV1 vanilloid antagonist on inhibition of cell proliferation: capsazepine (0.625 μM) added
Procedure: The human glioma cell line U87-MG was obtained from the American Type Culture Collection (Rockville, USA). Cells were maintained in DMEM supplemented with 10% heat-inactivated foetal bovine serum (Euroclone, Italy), 1% glutamine, 1% antibiotic mixture, 1% sodium pyruvate, 1% non-essential amino acids, at 37° C. in a humidified 5% CO2 atmosphere. Cells were seeded in complete medium. After a 24 h incubation, the medium was replaced by serum-free medium (ITSS medium), consisting of DMEM supplemented with 5 μg/ml insulin, 5 μg/ml transferrin, and 5 […].
(§1) To determine the effects of the phytocannabinoids upon cell viability, the applicants employed a MTT colorimetric assay ([3-(4,5-dimethyl-2-thiazolyl)-2,5-diphenyl-2H tetrazolium bromide]; Sigma-Aldrich). Briefly, U87 human glioma cells were seeded in a 96-well flat bottom multi-well at a density of 8000 cells/well. After 24 h, cells were treated with THCV, CBDV and CBG and/or receptor antagonists at the indicated concentrations. At the end of the incubation with the drugs, MTT (0.5 mg/ml final concentration) was added to each well and the incubation was then continued for 4 h. The insoluble formazan crystals were solubilized by the addition of 100 μl of 100% dimethyl sulfoxide. The plates were read at 570 nm using an automatic microtiter plate reader.

[2] = tested on: subcutaneously implanted U87 human glioma cells; details: nude mice, subcutaneous, 0.5 mg/mouse; cited from earlier work
U87-MG cells = assay: Cell motility assay (Boyden chamber), U87-MG; type: cell-based, human
Procedure: (§2) BD BioCoat Control Inserts (BD, USA) were used to examine the ability of U87-MG cells to migrate through an 8.0 micron pore size PET membrane. U87-MG cells (2.5×10^4 cells) were re-suspended in 500 μl of serum-free medium in presence of phytocannabinoids, and added to the upper chamber. The lower chamber was filled with 0.75 ml of complete medium as chemo-attractant. Cells were then incubated for 22 h at 37° C. After removal of cells on the upper surface of the membrane, cells on the lower surface were fixed in 100% methanol and stained with Diff-Quick stain (Medion Diagnostics, USA). Sixteen fields of cells were counted randomly in each well under a light microscope at 200× magnification. Data was expressed as the percentage of migrating cells as compared with the control. All the experiments were performed in triplicates and results were expressed as mean±SEM of three independent experiments.
The effect of THCV on U87 glioma cells invasion and motility was determined by Boyden chamber assay. […] The effect was even evident at concentrations as low as 0.25 μM.

T98G glioma cells [3] = assay: Matrigel invasion assay, T98G; type: cell-based, human
Procedure: (§3) BD BioCoat matrigel invasion chambers (BD, USA) were used to examine the ability of U87 cells to penetrate the extracellular matrix. U87 cells (2.5×10^4 cells) were re-suspended in 500 μl of serum-free medium in the presence of the phytocannabinoids, and added to the upper chamber. The lower chamber was filled with 0.75 ml of complete medium as chemo-attractant. Cells were then incubated for 22 h at 37° C. After removal of cells on the upper surface of the membrane, cells on the lower surface were fixed in 100% methanol and stained with Diff-Quick stain (Medion Diagnostics, USA). Sixteen fields of cells were counted randomly in each well under a light microscope at 200× magnification. Data was expressed as the percentage of invasive cells as compared with the control. All the experiments were performed in triplicates and results were expressed as mean±SEM of three independent experiments.
(§4) In a further set of experiments, Examples 8-10 the compounds were evaluated on a different cell line, T98G, which was obtained from the American Type Culture Collection (Rockville, USA). The protocols employed were as described above.
The matrigel invasion assay was carried out to further examine the effect of the CBDV on the invasiveness of T98G glioma cells.

T98G cell line = assay: MTT test, T98G; type: cell-based, human; details: for Effect of pre-treatment with CB1 antagonist on anti-proliferative effect: AM251; for Effect of pre-treatment with CB2 antagonist on anti-proliferative effect: AM630
Procedure: as §1, §4

T98G cell = assay: Trypan Blue test, T98G; type: cell-based, human
Procedure: To further confirm the ability of CBDV, CBG and THCV to inhibit T98G cell growth, a Trypan Blue test was also conducted.

U87 cells [4] = assay: Matrigel cell invasion assay, U87; type: cell-based, human
Procedure: as §3
The matrigel invasion assay was carried out to further examine the effect of THCV on the invasiveness on U87 glioma cells.

T98G glioma cells [5] = assay: Cell migration (Boyden chamber), T98G; type: cell-based, human; details: for Inhibition of migration of the cells: irrespective of the concentration used
Procedure: as §2, §4
The effect of CBDV on T98G glioma cells invasion and motility was determined by Boyden chamber assay.

[6] = tested on: human breast cell line MDA MB 231; assay: Migration in breast cell line MDA-MB 231; type: cell-based; details: MDA-MB 231 breast cell line
[7] = tested on: recurrent glioblastoma multiforme; details: nine patients, intra-tumoural; 95% confidence interval: 15-33; cited from earlier work
[8] = Homo sapiens, 24 h, read-out: IC50, drop of mitochondrial oxidative metabolism (MTT test)

Compound: C=C(C)[C@@H]1CCC(C)=C[C@H]1c1c(O)cc(CCCCC)cc1O [CBD, Cannabidiol, reference compound]
- Migration of U87 glioma cells (U87 glioma cells): concentration-dependent inhibition
- Apoptosis, alone (U87 cells [1]; 5 μM): did not cause any apoptosis
- Apoptosis, alone (U87 cells [1]; 9 μM): significant induction of apoptosis
- Effect on tumour cell viability (MTT test), alone (U87 human glioma cells; 5 μM): ineffective
- Effect on tumour cell viability (MTT test), alone (U87 human glioma cells; 9 μM): effective
- Growth of subcutaneously implanted U87 human glioma cells [2]: significantly inhibited the growth

Compound: CCCc1cc(O)c2c(c1)OC(C)(C)[C@@H]1CCC(C)=C[C@@H]21 [THCV, Tetrahydrocannabivarin]
- Concentration as low as which the anti-migratory effect was evident (U87-MG cells): 0.25 µM
- Inhibition of migration of the cells (U87-MG cells; irrespectively of the concentrations used, 22 h): 55%
- Effect on cell invasion (T98G glioma cells [3]): U-shaped dose-response curve
- Effect of pre-treatment with CB1 antagonist on anti-proliferative effect (T98G cell line): unaffected
- Effect of pre-treatment with CB2 antagonist on anti-proliferative effect (T98G cell line): unaffected
- pIC50 (T98G cell line; [8]): 4.79
- Cell viability, Trypan Blue test (T98G cell): inhibited cells viability in the same dose range as for MTT test
- Apoptosis, alone (U87 cells [1]; 5 μM): did not cause any apoptosis
- Apoptosis, alone (U87 cells [1]; 10 μM): did not cause any apoptosis
- inhibition at 5 µM (U87 cells [4]; Homo sapiens, U-87 MG, read-out: Inhibition of cell invasiveness): 55%
- Inhibition of cell invasiveness (U87 cells [4]; U87, 0.5 and 1 μM): about 35%
- pIC50 (U87 human glioma cells): 4.86
- Effect on tumour cell viability (MTT test), alone (U87 human glioma cells; 5 μM): ineffective
- Effect on tumour cell viability (MTT test), alone (U87 human glioma cells; 10 μM): effective
- Effect of CB1 antagonist on inhibition of cell proliferation (U87 human glioma cells): none of the antagonists was effective in reversing and/or potentiating the effect
- Effect of CB2 antagonist on inhibition of cell proliferation (U87 human glioma cells): none of the antagonists was effective in reversing and/or potentiating the effect
- Effect of TRPV1 vanilloid antagonist on inhibition of cell proliferation (U87 human glioma cells): none of the antagonists was effective in reversing and/or potentiating the effect
- Inhibition of migration of the cells (T98G glioma cells [5]): about 50%

Compound: C=C(C)[C@@H]1CCC(C)=C[C@H]1c1c(O)cc(CCCCC)c(C(=O)O)c1O [CBDA, Cannabidiolic acid]
- Effect on migration [6]: inhibit migration in a statistically significant manner

Compound: CCCCCc1cc(O)c(C/C=C(\C)CCC=C(C)C)c(O)c1 [CBG, Cannabigerol]
- Effect on cell migration (U87-MG cells): did not inhibit
- Effect on cell invasion (T98G glioma cells [3]): did not inhibit
- Effect of pre-treatment with CB1 antagonist on anti-proliferative effect (T98G cell line): unaffected
- Effect of pre-treatment with CB2 antagonist on anti-proliferative effect (T98G cell line): unaffected
- pIC50 (T98G cell line; [8]): 4.76
- Cell viability, Trypan Blue test (T98G cell): inhibited cells viability in the same dose range as for MTT test
- Effect on cell invasion (U87 cells [4]; U87): did not inhibit
- pIC50 (U87 human glioma cells): 4.92
- Effect of CB1 antagonist on inhibition of cell proliferation (U87 human glioma cells): able to antagonize the inhibitory action of the phytocannabinoid on glioma cells growth only at 19 and 25 μM concentrations
- Effect of CB2 antagonist on inhibition of cell proliferation (U87 human glioma cells): failed to antagonize the anti-proliferative effect
- Effect of TRPV1 vanilloid antagonist on inhibition of cell proliferation (U87 human glioma cells): failed to antagonize the anti-proliferative effect
- Effect on cell migration (T98G glioma cells [5]): did not inhibit

Compound: CCCCCc1cc2c(c(O)c1C(=O)O)[C@@H]1C=C(C)CC[C@H]1C(C)(C)O2 [THCA, Tetrahydrocannabinolic acid]
- Effect on migration [6]: inhibit migration in a statistically significant manner

Compound: CCCCCc1cc(O)c2c(c1)OC(C)(C)[C@@H]1CCC(C)=C[C@@H]21 [THC, Tetrahydrocannabinol]
- Median survival from the beginning of cannabinoid administration [7]: 24 weeks

Compound: C=C(C)[C@@H]1CCC(C)=C[C@H]1c1c(O)cc(CCC)cc1O [CBDV, Cannabidivarin]
- Concentration as low as which the anti-migratory effect was evident (U87-MG cells): 1 µM
- Effect on cell migration (U87-MG cells): significantly inhibited the migration
- Inhibition of cell invasiveness (T98G glioma cells [3]; concentration range from 0.5 to 12 μM): about 70%
- pIC50 (T98G cell line; 24 h after cannabinoid exposure): 4.57
- Effect of pre-treatment with CB1 antagonist on anti-proliferative effect (T98G cell line): exhibited some sensitivity
- Effect of pre-treatment with CB2 antagonist on anti-proliferative effect (T98G cell line): exhibited some sensitivity
- pIC50 (T98G cell line; Homo sapiens, 24 h, read-out: IC50, drop of mitochondrial oxidative metabolism (MTT test), T98G, 24 h after cannabinoid exposure): 4.57
- Cell viability, Trypan Blue test (T98G cell): inhibited cells viability in the same dose range as for MTT test
- Concentration as low as which the anti-invasive effect was evident (U87 cells [4]; U87): 1 µM
- Decrease of the number of invading cells, average effect (U87 cells [4]; U87, across the concentrations tested): 45%
- pIC50 (U87 human glioma cells): 4.62
- Effect of CB1 antagonist on inhibition of cell proliferation (U87 human glioma cells): able to significantly increase the inhibitory action of CBDV on glioma cell growth at 19, 40, and 50 μM concentrations
- Effect of CB2 antagonist on inhibition of cell proliferation (U87 human glioma cells): able to significantly increase the inhibitory action of CBDV on glioma cell growth at 19, 40, and 50 μM concentrations
- Effect of TRPV1 vanilloid antagonist on inhibition of cell proliferation (U87 human glioma cells): a significant increase of the inhibitory action of CBDV was seen only at 14 and 19 μM
- Concentration as low as which the anti-migratory effect was evident (T98G glioma cells [5]): 0.5 µM
- Inhibition of migration of the cells (T98G glioma cells [5]): 55%
